In patent publication US20250064762A1, “A SUBSTITUTED AROMATIC DICARBONIC ACID AMIDE AS AN INHIBITOR OF THE FERROPTOSIS SUPPRESSOR PROTEIN-1 (FSP1)” (JULIUS-MAXIMILIANS-UNIVERSITÄT WÜRZBURG, priority 2021, published 2025):

Assays:
[1] = tested on: HT1080 cells; test: Lipid droplet staining with BODIPY 493/503; assay type: cell-based, human; conditions: CPBA 100 μM; T863 10 μM and PF-06424439 5 μM; 16 h
Experimental: HT1080 cells were seeded on glass coverslips (15,000 cells per well of 12-well plate) in complete DMEM, and incubated for 16 h with 100 μM CPBA or with 0.1% of the DMSO solvent control, in the absence or presence of inhibitors of DGAT1 and DGAT2 (10 μM T863/iDGAT1; 5 μM PF-06424439/iDGAT2). Cells were fixed with 4% para-formaldehyde, lipid droplets were stained with the neutral lipid droplet stain BODIPY 493/503 (2 μM, 30 min), and nuclei were counterstained with 4′,6-diamidino-2-phenylindole (DAPI). Cells were mounted with Immu-Mount (Fisher Scientific), and imaged by fluorescence microscopy on a THUNDER imager (THUNDER Imager Live Cell & 3D Cell Culture & 3D Assay system, Leica DMI8; Leica Microsystems), using a 63× objective.
We next investigated the impact of CPBA on triglyceride levels and ferroptosis sensitivity by first imaging lipid droplets with the neutral lipid stain BODIPY 493/503.
The diglyceride acyltransferase isoforms 1 and 2 (DGAT1, DGAT2) are required to catalyze the formation of triglycerides from diacylglycerol and acyl-CoA.

[2] = tested on: GPX4-KO/FSP1-OE HT1080 cells; test: Viability of FSP1-dependent GPX4-KO cells with serial dilutions of CPBA, no FINs; assay type: cell-based, human; conditions: GPX4-KO, FSP1-dependent cells treated with CPBA
Experimental: The following HT1080 fibrosarcoma cell lines were generated using CRISPR/Cas9 technology, as previously described (Doll et al., 2019): HT1080 GPX4-knockout (KO) cells (maintained in the presence of 100 μM α-tocopherol); HT1080 GPX4 knockout cells overexpressing FSP1 (GPX4-KO/FSP1-OE); GPX4-KO cells overexpressing FSP1 and re-expressing GPX4 (GPX4-KO/FSP1-OE/GPX4-OE); HT1080 FSP1-WT or FSP1-KO cells; and HT1080 FSP1-KO cells reconstituted with either FSP1-WT or FSP1-G2A. LOX-IMVI (BRAF V600E heterozygous human melanoma cells) expressing either the Venus mock vector or FSP1-Venus (Doll et al., 2019) were grown in RPMI-1640 supplemented with 10% FCS, 2 mM L-glutamine and Pen/Strep.
Next, we tested the effect of CPBA on ferroptotic cell death in GPX4-deficient HT1080 cells whose survival depends on the expression of FSP1 in order to suppress ferroptosis in the absence of GPX4. GPX4 knockout cells overexpressing FSP1 (GPX4-KO/FSP1-OE), or GPX4-KO cells overexpressing FSP1 and re-expressing GPX4 (GPX4-KO/FSP1-OE/GPX4-OE) were incubated with serial dilutions of CPBA. Note that no ferroptosis inducers (FINs) were added. Protein expression was confirmed by Western Blot as described above (see FIG. 11).

CC1(C)Oc2ncnc(N)c2N=C1c1ccc([C@H]2CC[C@H](CC(=O)O)CC2)cc1 [T863]
lipid droplets [1]: blocked lipid droplet formation both in DMSO- and in CPBA-treated cells

CS(=O)(=O)O.O=C([C@@H]1CCCN(c2ccc3[nH]c(C4(n5cc(Cl)cn5)CC4)nc3n2)C1)N1CCCC1 [PF-06424439]
lipid droplets [1]: blocked lipid droplet formation both in DMSO- and in CPBA-treated cells

Clc1cccc(CN=C2Nc3ccccc3NC23CCNCC3)c1 [liproxstatin-1, reference compound]
prevention of CPBA-induced cell death [2]: cell death is prevented by liproxstatin-1
